Reference: patent US20180289678A1, “PHARMACEUTICAL COMPOSITION, PHARMACEUTICAL DOSAGE FORM, PROCESS FOR THEIR PREPARATION, METHODS FOR TREATING AND USES THEREOF” (Boehringer Ingelheim International GmbH, priority 2009, published 2018)
Where two headings read alike, the source gives them in different places.

Legend:
[1] = Study .4: 4-week treatment of diabetic patients, once daily, pharmacokinetic parameters; format: in vivo, human; conditions: human, plasma, oral, 25 mg, Study .4, fasted
Method: (§1) 5. Pharmacokinetic Parameters
(§2) The pharmacokinetic parameters of pharmaceutical compositions and pharmaceutical dosage forms are assessed in healthy volunteer and patient populations. In the studies shown below, the participants fasted on the day of sampling, unless as otherwise stated (see for example study .3). The active substance in the studies below is the compound (I.9), preferably in the crystalline form (I.9X), and the dose of active ingredient is indicated in mg.
(§3) For the quantification of plasma concentrations of the active ingredient, 2.7 mL of blood was collected and transferred into an EDTA (ethylendiaminetetraacetic acid)-anticoagulant blood drawing tube. The EDTA-anticoagulated blood samples were centrifuged immediately after collection. Centrifugation lasted for about 10 minutes (at about 2,000×gf to 4,000×gf) at 4-8° C. or within 30 minutes while stored on ice. Concentrations of active substance in EDTA human plasma samples were quantitated using a HPLC/MS/MS method. The assay method comprised a solid phase supported liquid-liquid extraction of human plasma coupled with HPLC/MS/MS determination of the extracted samples. The HPLC/MS/MS assay was validated for the range of 1.11 to 1110 nM in human plasma.
(§4) Study .4: 4-week treatment of a diabetic patient population of N=78, once daily administration for 4 weeks. Patients were administered tablets as described in Example 10 (section Examples of formulations).
(§5) AUC0-inf:area under the concentration-time curve of the analyte in plasma over the time interval from 0 extrapolated to infinity.
(§6) Cmax: maximum concentration of the analyte in plasma.
(§7) Tmax: time from dosing to maximum concentration.
(§8) AUCT,SS:area under the concentration-time curve of the analyte in plasma over the time interval from 0 to 24 h at steady-state.
(§9) Cmax,ss:maximum concentration of the analyte in plasma at steady state over a uniform dosing interval.
(§10) tmax,ss:time from dosing to maximum concentration at steady state.

[2] = Pharmacokinetic profile in fasting humans, ranges over Studies .1 to .5; format: in vivo; conditions: human, plasma, oral
Method: as §1, §2, §3
Study .1: Single dose study in a healthy volunteer population of N=72. Healthy volunteers were administered tablets as described in Example 10 (section Examples of formulations).
Study .2: Multiple rising dose trial in a diabetic patient population of N=48, once daily administration for 8 days. Patients were administered tablets as described in Example 10 (section Examples of formulations).
Study .3: Single dose, cross-over, food effect study in a healthy volunteer population of N=14. Healthy volunteers were administered tablets as described in Example 10 (section Examples of formulations).
as §4
Study .5: Single dose study in a healthy volunteer population of N=48 (Japanese volunteers). Healthy volunteers were administered tablets as described in Example 11 (section Examples of formulations).
as §5, §6, §7, §8, §9, §10

With `OC[C@H]1O[C@@H](c2ccc(Cl)c(Cc3ccc(O[C@H]4CCOC4)cc3)c2)[C@H](O)[C@@H](O)[C@@H]1O` [Compound (I.9), 1-chloro-4-(β-D-glucopyranos-1-yl)-2-[4-((S)-tetrahydrofuran-3-yloxy)-benzyl]-benzene] the Cmax ([1]; 25 mg once daily, steady state, read-out: Cmax,ss gMean) was 676 nM, the Tmax ([1]; 25 mg once daily, steady state, read-out: tmax,ss Mean) was 1.55 h and the Tmax ([1]; 25 mg once daily, steady state, read-out: tmax,ss Median) was 1.5 h. It also gave a Tmax ([1]; 25 mg once daily, steady state, read-out: tmax,ss g Mean) of 1.4 h, an AUC(0-inf) ([1]; 25 mg single dose, read-out: AUC0-inf Mean) of 4.34 µM·h and an AUC(0-inf) ([1]; 25 mg single dose, read-out: AUC0-inf Median) of 4.27 µM·h. It also gave an AUC(0-inf) ([1]; 25 mg single dose, read-out: AUC0-inf gMean) of 4.24 µM·h, a Cmax ([1]; 25 mg single dose, read-out: Cmax Mean) of 722 nM and a Cmax ([1]; 25 mg single dose, read-out: Cmax Median) of 697 nM. The Cmax ([1]; 25 mg single dose, read-out: Cmax gMean) was 709 nM, the Tmax ([1]; 25 mg single dose, read-out: tmax Mean) was 1.39 h and the Tmax ([1]; 25 mg single dose, read-out: tmax Median) was 1.5 h. It also gave a Tmax ([1]; 25 mg single dose, read-out: tmax gMean) of 1.33 h, an AUC ([2]; 2.5 mg, dose of 2.5 mg, read-out: AUC) of 0.283 to 0.677 µM·h and a Cmax ([2]; 2.5 mg, dose of 2.5 mg, read-out: Cmax) of 40.3 to 96.3 nM. It also gave an AUC ([2]; 2.5 mg, dose of 2.5 mg, read-out: geometric mean AUC) of 0.394 to 0.468 µM·h, a Cmax ([2]; 2.5 mg, dose of 2.5 mg, read-out: geometric mean Cmax) of 52.9 to 66.6 nM and an AUC ([2]; 2.5 mg, multiple doses of 2.5 mg, read-out: AUCτ,ss) of 0.283 to 0.677 µM·h. For the same molecule, the Cmax ([2]; 2.5 mg, multiple doses of 2.5 mg, read-out: Cmax,ss) was 40.3 to 96.3 nM, the AUC(0-inf) ([2]; 2.5 mg, single dose of 2.5 mg, read-out: AUC0-inf) was 0.326 to 0.631 µM·h and the Cmax ([2]; 2.5 mg, single dose of 2.5 mg, read-out: Cmax) was 42.8 to 81.2 nM. It also gave an AUC(0-inf) ([2]; 2.5 mg, single dose of 2.5 mg, read-out: geometric mean AUC0-inf) of 0.394 to 0.468 µM·h, a Cmax ([2]; 2.5 mg, single dose of 2.5 mg, read-out: geometric mean Cmax) of 52.9 to 61.3 nM and an AUC ([2]; 5 mg, dose of 5.0 mg, read-out: AUC) of 1 to 1.31 µM·h. The Cmax ([2]; 5 mg, dose of 5.0 mg, read-out: Cmax) was 123 to 230 nM, the AUC(0-inf) ([2]; 5 mg, single dose of 5.0 mg, read-out: AUC0-inf) was 1 to 1.31 µM·h and the Cmax ([2]; 5 mg, single dose of 5.0 mg, read-out: Cmax) was 123 to 230 nM. The AUC ([2]; 10 mg, dose of 10.0 mg, read-out: AUC) was 1.17 to 3.19 µM·h, the Cmax ([2]; 10 mg, dose of 10.0 mg, read-out: Cmax) was 143 to 796 nM and the AUC ([2]; 10 mg, dose of 10.0 mg, read-out: geometric mean AUC) was 1.69 to 2.66 µM·h. For the same molecule, the Cmax ([2]; 10 mg, dose of 10.0 mg, read-out: geometric mean Cmax) was 221 to 372 nM, the AUC ([2]; 10 mg, multiple doses of 10.0 mg, read-out: AUCτ,ss) was 1.35 to 2.6 µM·h and the Cmax ([2]; 10 mg, multiple doses of 10.0 mg, read-out: Cmax,ss) was 166 to 479 nM. The AUC ([2]; 10 mg, multiple doses of 10.0 mg, read-out: geometric mean AUCτ,ss) was 1.85 to 2 µM·h, the Cmax ([2]; 10 mg, multiple doses of 10.0 mg, read-out: geometric mean Cmax,ss) was 252 to 272 nM and the AUC(0-inf) ([2]; 10 mg, single dose of 10.0 mg, read-out: AUC0-inf) was 1.17 to 3.19 µM·h. For the same molecule, the Cmax ([2]; 10 mg, single dose of 10.0 mg, read-out: Cmax) was 143 to 796 nM, the AUC(0-inf) ([2]; 10 mg, single dose of 10.0 mg, read-out: geometric mean AUC0-inf) was 1.69 to 2.66 µM·h and the Cmax ([2]; 10 mg, single dose of 10.0 mg, read-out: geometric mean Cmax) was 221 to 372 nM. For the same molecule, the AUC ([2]; 25 mg, dose of 25.0 mg, read-out: AUC) was 2.66 to 7.64 µM·h, the Cmax ([2]; 25 mg, dose of 25.0 mg, read-out: Cmax) was 334 to 1030 nM and the AUC ([2]; 25 mg, dose of 25.0 mg, read-out: geometric mean AUC) was 3.75 to 6.13 µM·h. It also gave a Cmax ([2]; 25 mg, dose of 25.0 mg, read-out: geometric mean Cmax) of 490 to 709 nM, an AUC ([2]; 25 mg, multiple doses of 25.0 mg, read-out: AUCτ,ss) of 2.79 to 7.64 µM·h and a Cmax ([2]; 25 mg, multiple doses of 25.0 mg, read-out: Cmax,ss) of 443 to 907 nM. The AUC ([2]; 25 mg, multiple doses of 25.0 mg, read-out: geometric mean AUCτ,ss) was 4.64 to 4.89 µM·h, the Cmax ([2]; 25 mg, multiple doses of 25.0 mg, read-out: geometric mean Cmax,ss) was 622 to 676 nM and the AUC(0-inf) ([2]; 25 mg, single dose of 25.0 mg, read-out: AUC0-inf) was 2.66 to 7.17 µM·h. For the same molecule, the Cmax ([2]; 25 mg, single dose of 25.0 mg, read-out: Cmax) was 334 to 1030 nM, the AUC(0-inf) ([2]; 25 mg, single dose of 25.0 mg, read-out: geometric mean AUC0-inf) was 3.75 to 6.13 µM·h and the Cmax ([2]; 25 mg, single dose of 25.0 mg, read-out: geometric mean Cmax) was 490 to 709 nM. For the same molecule, the AUC ([2]; 50 mg, dose of 50.0 mg, read-out: AUC) was 6.45 to 14.1 µM·h, the Cmax ([2]; 50 mg, dose of 50.0 mg, read-out: Cmax) was 722 to 2020 nM and the AUC ([2]; 50 mg, dose of 50.0 mg, read-out: geometric mean AUC) was 8.31 to 8.46 µM·h. For the same molecule, the Cmax ([2]; 50 mg, dose of 50.0 mg, read-out: geometric mean Cmax) was 1080 to 1140 nM, the AUC(0-inf) ([2]; 50 mg, single dose of 50.0 mg, read-out: AUC0-inf) was 6.45 to 14.1 µM·h and the Cmax ([2]; 50 mg, single dose of 50.0 mg, read-out: Cmax) was 722 to 2020 nM. For the same molecule, the AUC(0-inf) ([2]; 50 mg, single dose of 50.0 mg, read-out: geometric mean AUC0-inf) was 8.31 to 8.46 µM·h and the Cmax ([2]; 50 mg, single dose of 50.0 mg, read-out: geometric mean Cmax) was 1080 to 1140 nM.
